Laboratory results published in patent publication US6924289B2, “Benzyl(Idene)-lactam derivatives, their preparation and their use as selective (ANT) agonists of 5-HT1A- and/or 5-HT1D receptors” (Pfizer Inc, priority 1996, dated 2005).
Counter-ions that a name gives are not always drawn.

Row | SMILES | melting point
1 | CN1CCN(c2ccccc2CC2CCCN(c3ccc(Cl)c(Cl)c3)C2=O)CC1.Cl (stereo not drawn) | 106 to 108 °C
2 | CN1CCN(c2ccc(F)cc2CC2CCCN(c3ccc(Cl)c(Cl)c3)C2=O)CC1.Cl (stereo not drawn) | 83 to 85 °C
3 | CN(C)CCOc1ccccc1C=C1CCN(c2ccc(Cl)c(Cl)c2)C1=O (as salt: HCl) [Example 27, 1-(3,4-Dichlorophenyl)-3-[2-(2-dimethylaminoethoxy)-benzylidene]-pyrrolidin-2one] | 111 to 112 °C
4 | CN1CCN(c2ccccc2C=C2CCN(c3ccc(C(F)(F)F)cc3)C2=O)CC1 (as salt: hydrochloride) (hydrate or solvate) [Example 16, 3-[2-(4-Methylpiperazin-1-yl)-benzylidene]-1-(4-trifluoromethylphenyl)-pyrrolidin-2-one] | 181 to 183 °C
5 | CN1CCN(c2ccccc2C=C2C(=O)N(C)c3ccccc32)CC1.Cl.O (hydrate or solvate) | 120 °C (dec.)
6 | CN1CCN(c2ccccc2C=C2CCCN(c3ccc(Cl)cc3)C2=O)CC1 [Example 11, 1-(4Chlorophenyl)-3-[2-(4-methylpiperazin-1-yl)-benzylidene]-piperidin-2-one] | 177 to 178 °C
7 | CN1CCN(c2ccccc2C=C2CCCN(c3ccc(Cl)c(Cl)c3)C2=O)CC1 [Example 12, 1-(3,4-Dichlorophenyl)-3-[2-(4-methylpiperazin-1-yl)-benzylidene]-piperidin-2-one] | 138 to 139.5 °C
8 | CN1CCN(c2ccc(F)cc2C=C2CCCN(c3ccc(Cl)cc3)C2=O)CC1 [Example 13, 1-(4-Chlorophenyl)-3-[5-fluoro-2-(4-methylpiperazin-1-yl)-benzylidene]-piperidin-2-one] | 158 to 159 °C
9 | CN1CCN(c2ccc(F)cc2C=C2CCCN(c3ccc(Cl)c(Cl)c3)C2=O)CC1 [Example 14, 1-(3,4-Dichlorophenyl)-3-[5-fluoro-2-(4methylpiperazin-1-yl)-benzylidene]-piperidin-2-one] | 161 to 162 °C
10 | CN1CCN(c2ccccc2C=C2CCN(c3ccccc3)C2=O)CC1 [Example 15, 3-[2-(4-Methylpiperazin-1-yl)-benzylidene]-1 phenylpyrrolidin-2-one] | 178 to 179.5 °C
11 | CN1CCN(c2ccccc2C=C2CCN(c3ccc(C(F)(F)F)cc3)C2=O)CC1 [Example 16, 3-[2-(4-Methylpiperazin-1-yl)-benzylidene]-1-(4-trifluoromethylphenyl)-pyrrolidin-2-one] | 185 to 186.5 °C
12 | CN1CCN(c2ccccc2C=C2CCN(c3ccc(Cl)cc3)C2=O)CC1 [Example 18, 1-(4-Chlorophenyl)-3-[2-(4-methylpiperazin-1-yl)-benzylidene]-pyrrolidin-2-one] | 188 to 190 °C
13 | CN1CCN(c2cc(F)ccc2C=C2CCN(c3ccccc3)C2=O)CC1 [Example 19, 3-[4Fluoro-2-(4-methylpiperazin-1-yl)-benzylidene]-1-phenylpyrrolidin-2-one] | 199 to 200.5 °C
14 | CN1CCN(c2cccc(F)c2C=C2CCN(c3ccc(Cl)c(Cl)c3)C2=O)CC1 [Example 20, 1-(3,4-Dichlorophenyl)-3-[2-fluoro-6-(4-methylpiperazin-1-yl)-benzylidene]-pyrrolidin-2-one] | 170 to 171 °C
15 | CN1CCN(c2ccc(F)cc2C=C2CCCN(c3ccc(F)c(F)c3)C2=O)CC1 [Example 21, 1-(3,4-Difluorophenyl)-3-[5-fluoro-2(4-methylpiperazin-1-yl)-benzylidene]-piperidin-2-one] | 168 to 170 °C
16 | CN1CCN(c2ccc(F)cc2C=C2CCCN(CCc3ccc(Cl)cc3)C2=O)CC1 [Example 22, 1-[2-(4Chlorophenyl)ethyl]-3-[5-fluoro-2-(4-methylpiperazin-1-yl)-benzylidene]-piperidin-2-one] | 88 to 90 °C
17 | CN1CCN(c2ccccc2C=C2CCN(Cc3ccc(Cl)cc3)C2=O)CC1 [Example 23, 1-(4-Chlorobenzyl)-3-[2-(4-methylpiperazin-1-yl)-benzylidene]-pyrrolidin-2-one] | 129 to 130 °C
18 | CN1CCN(c2ccc(F)cc2C=C2CCN(Cc3ccc(Cl)cc3)C2=O)CC1 [Example 24, 1-(4-Chlorobenzyl)-3-[5-fluoro-2-(4-methylpiperazin-1-yl)-benzylidene]-pyrrolidin-2one] | 131 to 132 °C
19 | Cc1ccc(N2CCN(C)CC2)c(C=C2CCN(c3ccc(Cl)c(Cl)c3)C2=O)c1 [Example 28, 1-(3,4-Dichlorophenyl)-3-[5-methyl-2-(4-methylpiperazin-1-yl)-benzylidene]-pyrrolidin-2one] | 149 to 150 °C
20 | CN1CCN(c2ccccc2CC2CCN(c3ccc(F)c(F)c3)C2=O)CC1 (stereo not drawn) [Example 29, 1-(3,4-Difluorophenyl)-3-[2-(4-methylpiperazin-1-yl)-benzyl]-pyrrolidin-2-one] | 130 to 131 °C
21 | CN1CCN(c2ccccc2CC2CCN(c3ccccc3)C2=O)CC1 (stereo not drawn) [Example 30, 3-[2-(4-Methylpiperazin-1-yl)-benzyl]-1-phenyl-pyrrolidin-2-one] | 104 to 105.5 °C
